Results published in patent publication US8859596B2, “Compounds as cannabinoid receptor ligands” (priority 2008, dated 2014).
Like-named read-outs stand apart in the source and are kept apart here.

Experiments:
[1] = target: T1, rat CB2 (Rattus norvegicus (Rat), UniProt Q9QZN9); test: CB2 cyclase functional assay (HitHunter cAMP); assay type: cell-based; conditions: HEK cells, forskolin 18 μM
Protocol: (§1) The cyclase functional assays were performed using the HitHunter™ cAMP assay kit from DiscoveRx (Fremont, Calif.) according to vendor's protocol. Briefly, HEK cells expressing CB2 or CB1 receptors (rat or human) were detached using cell dissociation buffer (Invitrogen, Carlsbad, Calif.), dispersed and placed in suspension at 10,000 cells per well in 96 well plates prior to the assay. Cell suspensions were incubated at 37° C. for 20 min with variable concentrations of test ligands and or 10 μM CP 55,940-positive control in the presence of a fixed concentration of forskolin (18 μM for rat CB2 and 37 μM for rat CB1) in Dulbescco's phosphate-buffered saline (Invitrogen, Carlsbad, Calif.) supplemented with bovine serum albumin (0.01% final concentration). The reactions were terminated by the addition of lysis buffer and the luminescence was detected following the procedure according to the manufacturer's instructions. EC50 values were calculated using sigmoidal dose-response curve fitting from Prism (GraphPad).

[2] = target: human CB2 receptors (Homo sapiens (Human), UniProt P34972); test: human CB2 radioligand binding assay ([3H]CP 55,940 competition)
Protocol: (§2) The CB1 and CB2 radioligand binding assays described herein are utilized to ascertain the affinity of compounds of the present application for binding to CB2 relative to CB1 receptors.
HEK293 cells stably expressing human CB2 receptors were grown until a confluent monolayer was formed. Briefly, the cells were harvested and homogenized in TE buffer (50 mM Tris-HCl, 1 mM MgCl2, and 1 mM EDTA) using a polytron for 2×10 second bursts in the presence of protease inhibitors, followed by centrifugation at 45,000×g for 20 minutes. The final membrane pellet was re-homogenized in storage buffer (50 mM Tris-HCl, 1 mM MgCl2, and 1 mM EDTA and 10% sucrose) and frozen at −78° C. until used. Saturation binding reactions were initiated by the addition of membrane preparation (protein concentration of 5 μg/well for human CB2) into wells of a deep well plate containing [^3H]CP 55,940 (120 Ci/mmol, a nonselective CB agonist commercially available from Tocris) in assay buffer (50 mM Tris, 2.5 mM EDTA, 5 mM MgCl2, and 0.5 mg/mL fatty acid free BSA, pH 7.4). After 90 min incubation at 30° C., binding reaction was terminated by the addition of 300 μL/well of cold assay buffer followed by rapid vacuum filtration through a UniFilter-96 GF/C filter plates (pre-soaked in 1 mg/mL BSA for 2 hours). The bound activity was counted in a TopCount using Microscint-20. Saturation experiments were conducted with twelve concentrations of [^3H]CP 55,940 ranging from 0.01 to 8 nM. Competition experiments were conducted with 0.5 nM [^3H]CP 55,940 and five concentrations (0.01 nM to 10 μM) of displacing ligands. The addition of 10 μM unlabeled CP 55,940 (Tocris, Ellisville, Mo.) was used to assess nonspecific binding.

[3] = target: T1, rat CB2; test: rat CB2 radioligand binding assay ([3H]CP 55,940 competition)
Protocol: as §2
HEK293 cells stably expressing rat CB2 receptors were grown until a confluent monolayer was formed. Briefly, the cells were harvested and homogenized in TE buffer (50 mM Tris-HCl, 1 mM MgCl2, and 1 mM EDTA) using a polytron for 2×10 second bursts in the presence of protease inhibitors, followed by centrifugation at 45,000×g for 20 minutes. The final membrane pellet was re-homogenized in storage buffer (50 mM Tris-HCl, 1 mM MgCl2, and 1 mM EDTA and 10% sucrose) and frozen at −78° C. until used. Saturation binding reactions were initiated by the addition of membrane preparation (protein concentration of 20 μg/well for rat CB2) into wells of a deep well plate containing [^3H]CP 55,940 (120 Ci/mmol, a nonselective CB agonist commercially available from Tocris) in assay buffer (50 mM Tris, 2.5 mM EDTA, 5 mM MgCl2, and 0.5 mg/mL fatty acid free BSA, pH 7.4). After 45 min incubation at 30° C., binding reaction was terminated by the addition of 300 μl/well of cold assay buffer followed by rapid vacuum filtration through a UniFilter-96 GF/C filter plates (pre-soaked in 1 mg/mL BSA for 2 hours). The bound activity was counted in a TopCount using Microscint-20. Saturation experiments were conducted with twelve concentrations of [^3H]CP 55,940 ranging from 0.01 to 8 nM. Competition experiments were conducted with 0.5 nM [^3H]CP 55,940 and five concentrations of displacing ligands selected from the range of 0.01 nM to […] addition of 10 μM unlabeled CP 55,940 (Tocris, Ellisville, Mo.) was used to assess nonspecific binding.

[4] = target: rat CB1 (Rattus norvegicus (Rat), UniProt P20272); test: CB1 cyclase functional assay (HitHunter cAMP); assay type: cell-based; conditions: HEK cells, forskolin 37 μM; read-out: rCB1 cyclase (EC50)
Protocol: as §1

[5] = HEK293 membranes, 0.5 nM [3H]CP 55,940, read-out: human CB2 (Ki)
[6] = HEK293 membranes, 0.5 nM [3H]CP 55,940, read-out: rat CB2 (Ki)

Sequence of human CB2 receptors (P34972 whole entry): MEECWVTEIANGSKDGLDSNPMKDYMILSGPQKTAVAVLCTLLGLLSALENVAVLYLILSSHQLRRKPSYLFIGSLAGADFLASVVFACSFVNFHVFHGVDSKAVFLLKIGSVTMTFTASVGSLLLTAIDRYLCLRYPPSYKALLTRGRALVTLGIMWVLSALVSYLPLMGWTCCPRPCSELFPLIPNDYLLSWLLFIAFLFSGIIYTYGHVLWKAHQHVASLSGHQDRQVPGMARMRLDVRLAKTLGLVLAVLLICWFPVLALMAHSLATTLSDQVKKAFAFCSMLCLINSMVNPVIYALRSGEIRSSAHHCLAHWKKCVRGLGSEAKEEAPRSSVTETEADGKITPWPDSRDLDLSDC
T1 sequence (Q9QZN9 whole entry): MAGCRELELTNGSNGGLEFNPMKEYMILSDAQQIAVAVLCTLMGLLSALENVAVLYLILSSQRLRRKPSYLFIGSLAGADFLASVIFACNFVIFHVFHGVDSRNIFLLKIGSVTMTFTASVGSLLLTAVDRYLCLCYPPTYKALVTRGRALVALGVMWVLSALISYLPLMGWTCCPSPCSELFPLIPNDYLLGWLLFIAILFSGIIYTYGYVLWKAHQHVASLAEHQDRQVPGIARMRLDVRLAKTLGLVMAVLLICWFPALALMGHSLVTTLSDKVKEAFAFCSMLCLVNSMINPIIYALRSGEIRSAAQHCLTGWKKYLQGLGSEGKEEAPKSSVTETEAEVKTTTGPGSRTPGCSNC

Row | Compound | EC50 [1] [nM] | Ki [2, 5] [nM] | Ki [3, 6] [nM] | EC50 [4] [nM] | Ki [2] [nM] | Ki [3] [nM]
1 | CCCCn1nc(C(C)(C)C)s/c1=N\C(=O)c1cc(C(F)(F)F)ccc1ONC(C)(C)C [Example 34, 2-[(tert-butylamino)oxy]-N-[(2Z)-3-butyl-5-tert-butyl-1,3,4-thiadiazol-2(3H)-ylidene]-5-(trifluoromethyl)benzamide] | 0.43 | 11 | 1.9 | > 27000 |  | 
2 | CCCCn1nc(C(C)(C)C)s/c1=N\C(=O)c1cc(C(F)(F)F)ccc1ONC(=O)OC(C)(C)C [Example 141, tert-butyl 2-({[(2Z)-3-butyl-5-tert-butyl-1,3,4-thiadiazol-2(3H)-ylidene]amino}carbonyl)-4-(trifluoromethyl)phenoxycarbamate] | 1.12 |  |  | 273 | 0.32 | 2.3
3 | Cn1c(C(C)(C)C)c/c(=N\C(=O)c2cc(C(F)(F)F)ccc2ONC(C)(C)C)n1C[C@H]1CCCO1 [Example 142, 2-[(tert-butylamino)oxy]-N-{(3E)-5-tert-butyl-1-methyl-2-[(2R)-tetrahydrofuran-2-ylmethyl]-1,2-dihydro-3H-pyrazol-3-ylidene}-5-(trifluoromethyl)benzamide] |  |  |  | > 27000 | 24 | 9.4
4 | CCCCn1nc(C(C)(C)C)s/c1=N\C(=O)c1cc(C(F)(F)F)ccc1ONC(C)C [Example 144, N-[(2Z)-3-butyl-5-tert-butyl-1,3,4-thiadiazol-2(3H)-ylidene]-2-[(isopropylamino)oxy]-5-(trifluoromethyl)benzamide] | 0.22 | 0.6 | 0.8 | 415 |  | 
5 | CC(C)(C)NOc1ccc(C(F)(F)F)cc1C(=O)/N=c1\sc(C(C)(C)C)nn1CCCC#N [Example 151, 2-[(tert-butylamino)oxy]-N-[(2Z)-5-tert-butyl-3-(3-cyanopropyl)-1,3,4-thiadiazol-2(3H)-ylidene]-5-(trifluoromethyl)benzamide] | 0.13 | 4.3 | 1.2 | 938 |  | 
6 | CC(C)(C)NOc1ccc(C(F)(F)F)cc1C(=O)/N=c1\sc(C(C)(C)C)nn1C[C@H]1CCCO1 [Example 153, 2-[(tert-butylamino)oxy]-N-[(2Z)-5-tert-butyl-3-[(2R)-tetrahydrofuran-2-ylmethyl]-1,3,4-thiadiazol-2(3H)-ylidene]-5-(trifluoromethyl)benzamide] | 0.24 | 10 | 3.2 | > 27000 |  | 
7 | CCCCn1nc(C(C)(C)C)s/c1=N\C(=O)c1cc(C(F)(F)F)ccc1ONC(C)=O [Example 154, 2-[(acetylamino)oxy]-N-[(2Z)-3-butyl-5-tert-butyl-1,3,4-thiadiazol-2(3H)-ylidene]-5-(trifluoromethyl)benzamide] | 1.5 | 1 | 1 | 58 |  | 
8 | CC(C)(C)NOc1ccc(C(F)(F)F)cc1C(=O)/N=c1\sc(C(C)(C)C)nn1CCCC(F)(F)F [Example 164, 2-[(tert-butylamino)oxy]-N-[(2Z)-5-tert-butyl-3-(4,4,4-trifluorobutyl)-1,3,4-thiadiazol-2(3H)-ylidene]-5-(trifluoromethyl)benzamide] | 0.28 | 1.8 | 0.3 | 1020 |  | 
9 | CCCCn1nc(C(C)(C)C)s/c1=N\C(=O)c1cc(C(F)(F)F)ccc1NNC(=O)c1cccnc1 [Example 197, N-[(2Z)-3-butyl-5-tert-butyl-1,3,4-thiadiazol-2(3H)-ylidene]-2-[2-(pyridin-3-ylcarbonyl)hydrazino]-5-(trifluoromethyl)benzamide] |  | 1.1 | 0.7 |  |  | 
10 | CCCCn1/c(=N/C(=O)c2cc(C(F)(F)F)ccc2NNC(=O)C(C)(C)C)cc(C(C)(C)C)n1C [Example 198, N-[(3E)-2-butyl-5-tert-butyl-1-methyl-1,2-dihydro-3H-pyrazol-3-ylidene]-2-[2-(2,2-dimethylpropanoyl)hydrazino]-5-(trifluoromethyl)benzamide] |  | 0.4 | 1.7 |  |  | 
11 | CCCCn1/c(=N/C(=O)c2cc(C(F)(F)F)ccc2NNC(=O)c2cccnc2)cc(C(C)(C)C)n1C [Example 199, N-[(3E)-2-butyl-5-tert-butyl-1-methyl-1,2-dihydro-3H-pyrazol-3-ylidene]-2-[2-(pyridin-3-ylcarbonyl)hydrazino]-5-(trifluoromethyl)benzamide] |  | 2.5 | 2.2 |  |  | 
12 | CCCCn1/c(=N/C(=O)c2cc(C(F)(F)F)ccc2NNC(=O)c2ccncc2)cc(C(C)(C)C)n1C [Example 200, N-[(3E)-2-butyl-5-tert-butyl-1-methyl-1,2-dihydro-3H-pyrazol-3-ylidene]-2-(2-isonicotinoylhydrazino)-5-(trifluoromethyl)benzamide] |  | 0.7 | 1.3 |  |  | 
13 | CCCCn1nc(C(C)(C)C)s/c1=N\C(=O)c1cc(C(F)(F)F)ccc1NNC(N)=O [Example 201, 2-[2-({[(2Z)-3-butyl-5-tert-butyl-1,3,4-thiadiazol-2(3H)-ylidene]amino}carbonyl)-4-(trifluoromethyl)phenyl]hydrazinecarboxamide] |  | 47 | 5.2 |  |  | 
14 | CCCCn1nc(C(C)(C)C)s/c1=N\C(=O)c1cc(C(F)(F)F)ccc1NNCc1ccccc1 [Example 202, 2-(2-benzylhydrazino)-N-[(2Z)-3-butyl-5-tert-butyl-1,3,4-thiadiazol-2(3H)-ylidene]-5-(trifluoromethyl)benzamide] |  | 43 | 36 |  |  | 
15 | CCCCn1nc(C(C)(C)C)s/c1=N\C(=O)c1cc(C(F)(F)F)ccc1ON=C(N)c1ccncc1 [Example 203, 2-({[amino(pyridin-4-yl)methylene]amino}oxy)-N-[(2Z)-3-butyl-5-tert-butyl-1,3,4-thiadiazol-2(3H)-ylidene]-5-(trifluoromethyl)benzamide] |  | 68 | 33 |  |  | 
16 | CCCCn1nc(C(C)(C)C)s/c1=N\C(=O)c1cc(C(F)(F)F)ccc1ON=C(N)c1cccnc1 [Example 204, 2-({[amino(pyridin-3-yl)methylene]amino}oxy)-N-[(2Z)-3-butyl-5-tert-butyl-1,3,4-thiadiazol-2(3H)-ylidene]-5-(trifluoromethyl)benzamide] |  | 87 | 13 |  |  | 
17 | CCCCn1nc(C(C)(C)C)s/c1=N\C(=O)c1cc(C(F)(F)F)ccc1N(/N=C/c1cccc(C)n1)C(=O)OC(C)(C)C [Example 205, tert-butyl (2E)-1-[2-({[(2Z)-3-butyl-5-tert-butyl-1,3,4-thiadiazol-2(3H)-ylidene]amino}carbonyl)-4-(trifluoromethyl)phenyl]-2-[(6-methylpyridin-2-yl)methylene]hydrazinecarboxylate] |  |  |  |  | 44 | 43
